# Results: patent publication US20260191874A1, “FUSED AMINO PYRIMIDINE COMPOUNDS FOR TREATMENT OF AUTISM SPECTRUM DISORDER, OBSESSIVE COMPULSIVE DISORDER AND TICS” (Ovid Therapeutics Inc., priority 2024, published 2026)
# Legend:
# NKCC1 = molecular target: T1, NKCC1 (Homo sapiens, UniProt P55011); assay: Tl+ flux assay in HEK-293 cells expressing NKCC1; assay type: cell-based; conditions: read-out: concentration at which effects on NKCC1 were seen (EC50 chart, FIG. 1G)
# T1 construct: expressed in transfected cells; host or cells: HEK-293
# T1 sequence (P55011 1-1212): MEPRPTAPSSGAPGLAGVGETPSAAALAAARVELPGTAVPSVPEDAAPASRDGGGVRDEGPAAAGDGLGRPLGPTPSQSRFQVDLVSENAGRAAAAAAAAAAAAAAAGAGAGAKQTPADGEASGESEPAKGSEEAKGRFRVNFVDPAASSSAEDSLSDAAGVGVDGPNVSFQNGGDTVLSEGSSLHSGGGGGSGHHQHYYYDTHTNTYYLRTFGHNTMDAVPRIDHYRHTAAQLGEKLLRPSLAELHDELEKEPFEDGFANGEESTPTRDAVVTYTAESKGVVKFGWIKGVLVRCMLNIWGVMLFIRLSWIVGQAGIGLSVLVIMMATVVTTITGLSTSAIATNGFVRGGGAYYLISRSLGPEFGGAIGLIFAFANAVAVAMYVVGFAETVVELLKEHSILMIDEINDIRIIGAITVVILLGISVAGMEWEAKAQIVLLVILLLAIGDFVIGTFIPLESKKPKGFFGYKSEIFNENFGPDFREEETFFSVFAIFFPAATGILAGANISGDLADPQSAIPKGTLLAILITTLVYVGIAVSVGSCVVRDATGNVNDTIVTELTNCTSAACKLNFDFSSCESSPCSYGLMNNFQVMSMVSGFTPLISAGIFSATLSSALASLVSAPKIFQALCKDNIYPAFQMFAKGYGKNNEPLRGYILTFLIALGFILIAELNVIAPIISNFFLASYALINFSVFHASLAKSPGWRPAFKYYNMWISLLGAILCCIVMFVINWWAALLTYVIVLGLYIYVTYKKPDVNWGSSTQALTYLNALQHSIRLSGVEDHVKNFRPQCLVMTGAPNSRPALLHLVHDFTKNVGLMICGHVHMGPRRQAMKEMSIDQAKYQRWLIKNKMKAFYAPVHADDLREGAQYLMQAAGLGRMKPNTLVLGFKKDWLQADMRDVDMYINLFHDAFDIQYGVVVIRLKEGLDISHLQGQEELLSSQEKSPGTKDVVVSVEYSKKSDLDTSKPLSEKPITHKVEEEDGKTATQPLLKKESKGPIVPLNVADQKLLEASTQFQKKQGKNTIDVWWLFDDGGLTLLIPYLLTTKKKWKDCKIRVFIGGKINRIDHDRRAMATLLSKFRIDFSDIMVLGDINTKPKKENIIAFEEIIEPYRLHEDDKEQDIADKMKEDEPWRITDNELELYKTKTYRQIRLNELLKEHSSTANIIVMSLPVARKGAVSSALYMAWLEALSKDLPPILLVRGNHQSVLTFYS
# Experimental: (§1) FLIPR TI Flux assay. HEK-293 cells were washed with HBSS, and then incubated with loading buffer containing TI sensitive fluorescent dye (https://www.moleculardevices.com), 20 μM bumetanide 20 μM ouabain and 2.5 mM probenecid for 1 h at room temperature (RT) under control conditions or with drugs in the dark using a FlexStation 3 microplate reader (Molecular Devices) and imaged […] for 30 min. Stimulus buffer was added containing 5 mM K^+/0.5 mM Tl^+ and cells were imaged every 1.5 over a 190 second time course The initial rate Tl^+ uptake (Relative Fluorescence Units (RFU) per second) was determined following addition of the stimulus buffer as outlined previously (Conway et al., 2017, supra) (Lee et al., 2022, supra).
# (§2) Several studies have shown that the activity and plasma membrane accumulation of KCC2 is potentiated via phosphorylation of S940, a process mediated by the activity of protein kinase C and protein phosphatase 1 (Lee et al., 2011, supra; Lee et al., J Biol Chem 282, 29777-29784 (2007); Moore et al., Proc. Natl. Acad. Sci. U.S.A 115, 10166-10171 (2018); Moore et al., Trends Neurosci. 40, 555-571 (2017); Silayeva et al., Proc. Natl. Acad. Sci. U.S.A 112, 3523-3528 (2015)). […] Compared to KCC2, effects on KCC3, KCC4, and NKCC1 were only seen at concentrations more than 35-fold that of KCC2 (≥100 μM) (FIG. 1G).
# [1] = parameters: species or system mice; conditions: in vivo
# KCC2-S940A = molecular target: T2, KCC2-S940A (Homo sapiens, UniProt Q9H2X9, S963A); assay: Tl+ flux assay in HEK-293 cells expressing KCC2-S940A; assay type: cell-based
# T2 construct: expressed in transfected cells; host or cells: HEK-293
# T2 sequence (Q9H2X9 1-1116 isoform Q9H2X9-2 S940A): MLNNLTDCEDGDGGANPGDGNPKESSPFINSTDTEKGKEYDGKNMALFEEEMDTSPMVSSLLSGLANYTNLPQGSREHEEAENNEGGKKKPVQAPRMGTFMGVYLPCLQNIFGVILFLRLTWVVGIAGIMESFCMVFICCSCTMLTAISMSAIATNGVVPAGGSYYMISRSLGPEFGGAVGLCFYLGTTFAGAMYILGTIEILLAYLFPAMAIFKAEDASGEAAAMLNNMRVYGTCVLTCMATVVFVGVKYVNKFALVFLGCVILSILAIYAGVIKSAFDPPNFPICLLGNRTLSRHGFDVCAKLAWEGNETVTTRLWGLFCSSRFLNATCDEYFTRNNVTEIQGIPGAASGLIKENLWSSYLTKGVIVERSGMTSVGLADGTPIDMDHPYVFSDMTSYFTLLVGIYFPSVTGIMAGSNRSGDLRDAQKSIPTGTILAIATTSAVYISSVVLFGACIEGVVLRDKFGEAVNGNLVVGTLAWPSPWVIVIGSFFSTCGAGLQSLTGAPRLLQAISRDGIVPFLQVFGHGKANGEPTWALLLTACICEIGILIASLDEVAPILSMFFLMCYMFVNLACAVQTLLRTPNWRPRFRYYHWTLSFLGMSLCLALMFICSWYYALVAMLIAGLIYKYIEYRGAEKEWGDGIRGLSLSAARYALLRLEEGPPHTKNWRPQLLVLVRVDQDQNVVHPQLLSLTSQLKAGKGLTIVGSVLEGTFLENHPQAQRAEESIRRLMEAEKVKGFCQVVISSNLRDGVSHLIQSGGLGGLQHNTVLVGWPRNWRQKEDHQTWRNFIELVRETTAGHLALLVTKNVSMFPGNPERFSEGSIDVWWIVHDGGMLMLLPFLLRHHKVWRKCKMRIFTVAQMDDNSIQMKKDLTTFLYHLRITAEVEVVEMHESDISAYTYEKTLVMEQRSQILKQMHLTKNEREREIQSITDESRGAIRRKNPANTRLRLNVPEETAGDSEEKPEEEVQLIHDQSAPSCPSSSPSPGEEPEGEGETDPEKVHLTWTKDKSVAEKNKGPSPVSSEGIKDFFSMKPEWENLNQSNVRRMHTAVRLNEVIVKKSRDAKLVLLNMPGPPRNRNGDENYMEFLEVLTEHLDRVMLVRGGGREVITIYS
# Experimental: as §1, §2
structure (smiles),measurement,setting,value
"C[C@@H]1CN(c2nc3c(c(Nc4ccc(C5CCCCC5)cc4)n2)COC3)CCO1 [Compound A, (R)—N-(4-cyclohexylphenyl)-2-(2-methylmorpholino)-5,7-dihydrofuro[3,4-d]pyrimidin-4-amine]",EC50,NKCC1,≥ 100 µM
same,gross effects on mouse behavior,[1],no gross effects
same,total distance traveled in open field,"[1]; mouse, sc, 50 mg/kg",6134.2±235.3 cm
same,activity of KCC2-S940A construct,KCC2-S940A,increased the activity
